The values that follow come from paper PMC4564189, “A Genetic Selection for dinB Mutants Reveals an Interaction between DNA Polymerase IV and the Replicative Polymerase That Is Required for Translesion Synthesis” (PLoS Genetics, 2015).

Assay [1] concerns the target T1, Pol IV (E. coli DNA polymerase IV, DinB) (Escherichia coli, UniProt Q47155, T120P).
T1 construct: full-length, untagged as far as told, pET11a plasmid pRM112 (T7 promoter) and mutant derivatives, purified from E. coli; 351 residues
Nature of the assay: pre-steady-state single-nucleotide primer extension, […] gel assay. The assay is classed as biochemical. The settings on record: apparent Kd for dNTP, kpol given as kcat, 200 nM DNA, 400 nM polymerase, 10 mM MgCl2, pH 7.5, 25°C.

Assay [2] has as its target T2, Pol IV (E. coli DNA polymerase IV, DinB) (Escherichia coli, UniProt Q47155).
T2 construct: full-length, untagged as far as told, pET11a plasmid pRM112 (T7 promoter) and mutant derivatives, purified from E. coli; 351 residues
T2 sequence (Q47155 1-351): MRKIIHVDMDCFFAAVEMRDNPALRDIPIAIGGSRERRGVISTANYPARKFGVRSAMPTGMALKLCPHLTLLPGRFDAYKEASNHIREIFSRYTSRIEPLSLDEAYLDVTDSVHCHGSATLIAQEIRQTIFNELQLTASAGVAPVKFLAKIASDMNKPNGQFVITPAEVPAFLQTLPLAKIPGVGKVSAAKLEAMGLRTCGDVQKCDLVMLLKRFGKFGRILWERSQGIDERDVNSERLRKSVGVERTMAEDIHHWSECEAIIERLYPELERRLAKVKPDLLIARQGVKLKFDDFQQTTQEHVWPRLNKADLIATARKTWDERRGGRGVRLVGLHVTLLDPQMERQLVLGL
The description is as above. The settings on record: apparent Kd for dNTP, kpol given as kcat, 200 nM DNA, 400 nM polymerase, 10 mM MgCl2, pH 7.5, 25°C. The format is biochemical.

The target in assay [3] is Pol III core complex (Pol IIIαεθ) (E. coli) (UniProt P10443).
[4] abbreviates: undamaged template 13/20G (opposite dG).
Where [5] appears, read: undamaged template 13/20A (opposite dA).

T1 sequence (Q47155 whole entry T120P): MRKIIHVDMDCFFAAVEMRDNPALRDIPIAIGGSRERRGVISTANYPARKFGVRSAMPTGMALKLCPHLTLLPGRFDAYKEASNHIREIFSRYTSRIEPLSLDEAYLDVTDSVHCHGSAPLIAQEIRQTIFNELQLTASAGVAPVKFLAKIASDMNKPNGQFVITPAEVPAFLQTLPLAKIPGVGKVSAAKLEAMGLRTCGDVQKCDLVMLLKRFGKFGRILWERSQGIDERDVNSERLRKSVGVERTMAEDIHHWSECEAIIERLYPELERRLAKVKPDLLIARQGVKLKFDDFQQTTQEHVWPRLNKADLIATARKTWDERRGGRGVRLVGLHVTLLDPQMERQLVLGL

On to `Nc1ncnc2c1ncn2[C@H]1C[C@H](O)[C@@H](COP(=O)(O)OP(=O)(O)OP(=O)(O)O)O1` [dATP], for which the Kd in assay [1] (template 13/20Sp (opposite abasic site), above highest dNTP tested (500 μM range)) is 460 ± 230 µM.

As to `Nc1ccn([C@H]2C[C@H](O)[C@@H](COP(=O)(O)OP(=O)(O)OP(=O)(O)O)O2)c(=O)n1` [dCTP], the Kd was 14 ± 3.3 µM in assay [1] (setting [4]) and greater than 300 µM in assay [2] (setting [4]).

With `Cc1cn([C@H]2C[C@H](O)[C@@H](COP(=O)(O)OP(=O)(O)OP(=O)(O)O)O2)c(=O)[nH]c1=O` [dTTP], the Kd in assay [1] (setting [5]) came to 39 ± 9 µM; in assay [2] (setting [5]) it was 207 ± 21 µM.

B1: Pol IV catalytic domain (Pol IV^CD; residues 1–230) (domain or fragment)
chain: MRKIIHVDMDCFFAAVEMRDNPALRDIPIAIGGSRERRGVISTANYPARKFGVRSAMPTGMALKLCPHLTLLPGRFDAYKEASNHIREIFSRYTSRIEPLSLDEAYLDVTDSVHCHGSATLIAQEIRQTIFNELQLTASAGVAPVKFLAKIASDMNKPNGQFVITPAEVPAFLQTLPLAKIPGVGKVSAAKLEAMGLRTCGDVQKCDLVMLLKRFGKFGRILWERSQGID
As for B1, in assay [3], the Pol III processivity in the single-molecule primer extension assay; 900 nM Pol IV^CD (180-fold molar excess) with 5 nM Pol IIIαεθ, β clamp and τ3δδ'ψχ clamp loader (of the processivity without Pol IV^CD) was 0.5.
